Columns and labels:
[1] = Cytotoxicity against human HepG2(2.2.15) cells; format: cell-based
Hepatitis B virus [2] = assay: Antiviral activity against Hepatitis B virus infected in human HepG2(2.2.15) cells assessed as reduction in hepatitis B surface antigen release; format: functional, organism-based
Hepatitis B virus [3] = assay: Antiviral activity against Hepatitis B virus infected in human HepG2(2.2.15) cells assessed as reduction in hepatitis B e-antigen release; format: functional, organism-based
Hepatitis B virus [4] = assay: Antiviral activity against Hepatitis B virus infected in human HepG2(2.2.15) cells assessed as reduction in viral DNA replication; format: functional, organism-based
[5] = Selectivity index, ratio of CC50 for human HepG2(2.2.15) cells to IC50 for HBV by viral DNA replication detection assay; format: functional

SMILES | CC50 [1] [µM] | IC50 (Hepatitis B virus [2]) [µM] | IC50 (Hepatitis B virus [3]) [µM] | IC50 (Hepatitis B virus [4]) [µM] | Ratio CC50/IC50 [5]
CCOC(=O)CCCCCOC(=O)[C@@]1(C)CC[C@]2(C)CC[C@]3(C)C(=CC(=O)[C@@H]4[C@@]5(C)CC[C@H](O)C(C)(C)[C@@H]5CC[C@]43C)[C@@H]2C1 | 54.7 | 209 | > 1750 | 47.2 | 1.2
CC1(C)[C@@H](O)CC[C@]2(C)[C@H]3C(=O)C=C4[C@@H]5C[C@@](C)(C(=O)OCC6CC6)CC[C@]5(C)CC[C@@]4(C)[C@]3(C)CC[C@@H]12 | 696 | 678 | > 1100 | 67 | 10.4
CC1(C)[C@@H](O)CC[C@]2(C)[C@H]3C(=O)C=C4[C@@H]5C[C@@](C)(C(=O)OCCO)CC[C@]5(C)CC[C@@]4(C)[C@]3(C)CC[C@@H]12 | 380 | 1010 | > 1920 | 298 | 1.3
CCOC(=O)CCCOC(=O)[C@@]1(C)CC[C@]2(C)CC[C@]3(C)C(=CC[C@@H]4[C@@]5(C)CC[C@H](OC(=O)/C=C/c6cc(OC)c(OC)c(OC)c6)C(C)(C)[C@@H]5CC[C@]43C)[C@@H]2C1 | > 1230 | > 1230 | > 1230 | > 307 | –
COc1cccc(/C=C/C(=O)O[C@H]2CC[C@]3(C)[C@H]4CC=C5[C@@H]6C[C@@](C)(C(=O)OCc7ccc(C(F)(F)F)cc7)CC[C@]6(C)CC[C@@]5(C)[C@]4(C)CC[C@H]3C2(C)C)c1 | > 899 | > 899 | > 899 | > 225 | –
CCOC(=O)CCCOC(=O)[C@@]1(C)CC[C@]2(C)CC[C@]3(C)C(=CC[C@@H]4[C@@]5(C)CC[C@H](O)C(C)(C)[C@@H]5CC[C@]43C)[C@@H]2C1 | 530 | 638 | > 1170 | > 292 | –
COc1cccc(/C=C/C(=O)O[C@H]2CC[C@]3(C)[C@H]4CC=C5[C@@H]6C[C@@](C)(C(=O)OCc7ccc(Br)cc7F)CC[C@]6(C)CC[C@@]5(C)[C@]4(C)CC[C@H]3C2(C)C)c1 | > 1000 | > 1000 | > 1000 | > 250 | –
CC1(C)[C@@H](O)CC[C@]2(C)[C@H]3CC=C4[C@@H]5C[C@@](C)(C(=O)OCc6ccc(C(F)(F)F)cc6)CC[C@]5(C)CC[C@@]4(C)[C@]3(C)CC[C@@H]12 | > 1500 | > 1500 | > 1500 | > 375 | –
CCOC(=O)COC(=O)[C@@]1(C)CC[C@]2(C)CC[C@]3(C)C(=CC(=O)[C@@H]4[C@@]5(C)CC[C@H](O)C(C)(C)[C@@H]5CC[C@]43C)[C@@H]2C1 | > 1200 | > 1200 | > 1200 | 139 | >8.7
CC1(C)[C@@H](O)CC[C@]2(C)[C@H]3C(=O)C=C4[C@@H]5C[C@@](C)(C(=O)OCc6cccnc6)CC[C@]5(C)CC[C@@]4(C)[C@]3(C)CC[C@@H]12 | 321 | 1070 | > 1360 | 171 | 1.9
C=CCOC(=O)[C@@]1(C)CC[C@]2(C)CC[C@]3(C)C(=CC(=O)[C@@H]4[C@@]5(C)CC[C@H](O)C(C)(C)[C@@H]5CC[C@]43C)[C@@H]2C1 | > 2310 | > 2310 | > 2310 | > 578 | –
CCOC(=O)CCCOC(=O)[C@@]1(C)CC[C@]2(C)CC[C@]3(C)C(=CC[C@@H]4[C@@]5(C)CC[C@H](OC(=O)c6cc(=O)c7ccccc7o6)C(C)(C)[C@@H]5CC[C@]43C)[C@@H]2C1 | > 1180 | > 1180 | > 1180 | > 294 | –
CC1(C)[C@@H](OC(=O)c2cc(=O)c3ccccc3o2)CC[C@]2(C)[C@H]3CC=C4[C@@H]5C[C@@](C)(C(=O)OCc6ccc(Br)cc6F)CC[C@]5(C)CC[C@@]4(C)[C@]3(C)CC[C@@H]12 | > 1080 | > 1080 | > 1080 | > 271 | –
COc1cc(/C=C/C(=O)O[C@H]2CC[C@]3(C)[C@H]4CC=C5[C@@H]6C[C@@](C)(C(=O)OCc7ccc(C(F)(F)F)cc7)CC[C@]6(C)CC[C@@]5(C)[C@]4(C)CC[C@H]3C2(C)C)cc(OC)c1OC | > 987 | > 987 | > 987 | > 247 | –
CCCCCCCCOC(=O)[C@@]1(C)CC[C@]2(C)CC[C@]3(C)C(=CC(=O)[C@@H]4[C@@]5(C)CC[C@H](O)C(C)(C)[C@@H]5CC[C@]43C)[C@@H]2C1 | > 1450 | > 1450 | > 1450 | > 362 | –
CC1(C)[C@@H](O)CC[C@]2(C)[C@H]3C(=O)C=C4[C@@H]5C[C@@](C)(C(=O)OCc6cc(F)cc(F)c6)CC[C@]5(C)CC[C@@]4(C)[C@]3(C)CC[C@@H]12 | > 1230 | > 1230 | > 1230 | > 307 | –

Reference: ChEMBL document CHEMBL2021793, “Synthesis, biological evaluation and structure-activity relationships of glycyrrhetinic acid derivatives as novel anti-hepatitis B virus agents” (Bioorg Med Chem Lett, 2012)
